Measured values as given in patent publication US6458760B1, “Method for treating tissue damaged from ischemia” (Henry Ford Health System, priority 1998, dated 2002).
Non-standard residues stand in square brackets, D forms with d. Residues, ends and D or L forms follow the SMILES beside them. *: point of attachment. Phe(4-NO2) = N[CH](Cc1ccc([N+](=O)[O-])cc1)C(=O)O; Cit = NC(=O)NCCC[CH](N)C(=O)O; Cbz = O=C(OCc1ccccc1)*; CHN2 = [N-]=[N+]=C*; Bn = c1ccc(C*)cc1; tBu = CC(C)(C)*

Key:
Cathepsin B = Cathepsin B (Homo sapiens, UniProt P07858); test: Cathepsin B inactivation rate, fluorimetric progress curves; type: biochemical; conditions: second order inactivation rate constant corrected for substrate; pH 5.4, 30° C.
Method: (§1) (“Tian, et al.”) the contents of which are incorporated by reference. More specifically, the value of kobs is given by the slope of a plot of ln [P]∞−[p]t versus t (time). The apparent second-order rate contact for inactivation, k2app was calculated as kobs/[I]. The inactivation-rates (kobs) in the presence of substrate and for different inhibitor concentrations for calpain, cathepsin B and cathepsin L are determined according to the method of Tian, et al. However, k2app is corrected for the presence of substrate (s) to give the second order rate constant k^12app, calculated as k^12app=k2app (1+[s]/Km).
Cathepsins B and L were preactivated with […] DTT in 50 mM sodium acetate buffer, pH 5.4, 1 mM EDTA for 2 h at 4° C. and assayed in the same buffer with 0.01% Brij [poly(oxyethylene) glycol dodecyl ether]. […] The inhibitors (0.1-1 μM) and substrate were added to the reaction mixture to incubate for 5 min in a cuvette thermostated at 30° C. Then, approximately 0.4 nM and 0.1 nM final concentration of cathepsin B and cathepsin L, respectively, were used to initiate the reaction. […] The progress curves were analyzed over at least 3 half lives to calculate the rate constants of inactivation in accordance with the procedure described by Crawford, C. Mason, R. W., Wilkström, P., and Shaw, E. in an article entitled “The design of peptidyldiazomethane inhibitors to distinguish between the cysteine proteinases calpain II, cathepsin L and cathepsin B.”, Biochem. J. 1988, 253, 751-758, the contents of which are incorporated by reference. The rates of inactivation of various substrates are tabulated hereinbelow.

Cathepsin L = Cathepsin L (Homo sapiens, UniProt P07711); test: Cathepsin L inactivation rate, fluorimetric progress curves; type: biochemical; conditions: second order inactivation rate constant corrected for substrate; substrate Z-Phe-Arg-AMC; pH 5.4, 30° C.
Cathepsin L, sequence (P07711 114-333, species assumed): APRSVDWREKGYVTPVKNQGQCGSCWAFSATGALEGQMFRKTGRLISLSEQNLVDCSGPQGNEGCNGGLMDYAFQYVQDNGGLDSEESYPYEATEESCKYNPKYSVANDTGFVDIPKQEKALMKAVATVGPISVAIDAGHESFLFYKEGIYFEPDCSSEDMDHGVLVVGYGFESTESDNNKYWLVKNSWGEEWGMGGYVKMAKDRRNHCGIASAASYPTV
Method: as §1
Cathepsins B and L were preactivated with […] DTT in 50 mM sodium acetate buffer, pH 5.4, 1 mM EDTA for 2 h at 4° C. and assayed in the same buffer with 0.01% Brij [poly(oxyethylene) glycol dodecyl ether]. 5 μM (final concentration) CBZ-Phe-Arg-AMC was used as substrate for both for cathepsins B and L. The inhibitors (0.1-1 μM) and substrate were added to the reaction mixture to incubate for 5 min in a cuvette thermostated at 30° C. Then, approximately 0.4 nM and 0.1 nM final concentration of cathepsin B and cathepsin L, respectively, were used to initiate the reaction. […] The progress curves were analyzed over at least 3 half lives to calculate the rate constants of inactivation in accordance with the procedure described by Crawford, C. Mason, R. W., Wilkström, P., and Shaw, E. in an article entitled “The design of peptidyldiazomethane inhibitors to distinguish between the cysteine proteinases calpain II, cathepsin L and cathepsin B.”, Biochem. J. 1988, 253, 751-758, the contents of which are incorporated by reference. The rates of inactivation of various substrates are tabulated hereinbelow.

Calpain = Calpain inactivation rate, fluorimetric progress curves; type: biochemical; conditions: second order inactivation rate constant corrected for substrate; substrate Suc-Leu-Tyr-AMC; pH 7.5, 37° C.
Method: as §1
Calpain was assayed fluorimetrically in 1 ml of 50 mM Tris/acetate buffer, pH 7.5, containing 5 mM CaCl2, 2.5 mM DTT(dithiothreitol), 0.1% Triton X-100 at 37° C., using 2.5×10^−4 M Suc-Leu-Tyr-aminomethylcoumarin (AMC) (Novabiochem, Switzerland) as substrate and 50nM (final concentration) of enzyme. The appearance of the 7-amino-4 methylcoumarin product was recorded continuously with a Perkin Elmer 650-10S spectrofluorimeter, a SPEX Fluorolog 1680, or SLM 8000C fluorescence spectrometer with excitation at 370 nm and emission at 460 nm.
Typically, 5 μL of the substrate solution (50 mM stock in DMSO) was added to 1 mL of buffer. Varying concentrations of the inhibitor solution (10 μL of a DMSO […] solution) were added, followed by 10 μL of calpain in the assay buffer. After allowing the reaction mixture to incubate for 2-5 min, during which time a steady baseline level of fluorescence was measured, calcium was added in a 10-μL volume to initiate hydrolysis of the fluorogenic substrate, and the resulting increase in fluorescence was monitored continuously. When inhibitors were tested at very low concentrations, the enzyme concentration was reduced to maintain a minimum of a 10-fold excess of inhibitor over enzyme.

[1] = test system: Wistar rats with MCA occlusion; test: Stroke model, 2 h MCA occlusion, i.v. infusion after reperfusion, infarct volume at 7 days; type: in vivo, rat; conditions: 2 h MCA occlusion; for % Hemisphere Infarct Volume (% ± SEM): day 7, control 37 ± 2.6
Method: Male Wistar rat weighing between 270-290 gm are fasted the night prior to surgery. Each rat was then anesthetized with 3.5% halothane, and spontaneously respired with 0.5% halothane in a 2:1 N2O:O2 mixture using a face mask. A normal range of blood gases and pH is maintained during ischemia and reperfusion with the face mask inhalation, as verified by samples taken from a femoral artery PE-50 catheter. Body temperature is maintained constant at 37° C. with a recirculating heating pad and K module with an intrarectal type T thermocouple. The PE-50 catheters are inserted into the femoral artery and vein following induction of anesthesia to obtain the blood gas, glucose and hemoglobin concentrations and to monitor blood pressure.
The right common carotid artery, external carotid artery and internal carotid artery are isolated using microsurgical techniques. A clamp is applied to the common carotid artery and a 4-0 nylon suture with a rounded tip is inserted into the external carotid artery through a small puncture. The clamp on the common carotid artery is removed. The suture is passed distally into the internal carotid artery until it blocks the middle cerebral artery. Two hours after the MCA occlusion, the animal is again anesthetized, and the nylon suture is removed from the internal carotid artery.
Infusion of the inhibitor or vehicle is done by intravenous infusion via the femoral vein.
Syringe pumps were filled under sterile conditions with either isotonic saline/1% DMSO solution as the control or with the concentration of CP-1 or CP-2 indicated in the examples, hereinbelow. The pumps delivered the solution at a rate of 15 μl/min for up to 4 hours.
After anesthesia had been induced in the rat, a catheter was inserted into the femoral vein and tunneled subcutaneously in the posterior neck region. Body temperature was maintained at a constant temperature of 37° C. during surgical procedures. The animals underwent 2 hours of MCA occlusion, and then reperfusion when the suture was withdrawn, and immediately thereafter, the drug was infused for four hours. The animals were killed after a 7-day reperfusion, and the brains were formalin fixed and sliced 6-μm thick into seven coronal sections A-G, and mounted on coated slides. After staining with hematoxylin and eosin, the stroke volume was measured using an image analysis program. The stroke area and the contralateral hemispheric area were calculated by tracing the areas on the computer screen, and the volumes were determined by multiplying the appropriate area by the section interval thickness. The stroke volume is expressed as the percentage of lesion size to the volume of contralateral hemisphere. Statistical analysis was performed using the independent t-test.
CP-1 dissolved in 1% DMSO and isotonic saline was given intravenously to Wistar rats (15 μl/min) at concentrations of 2 μM, 10μM, 50μM and 25μM for 4 hours immediately after reperfusion following two hours of MCA occlusion, in accordance with the procedure described hereinabove. Control animals underwent a similar protocol but they had injected therein 1% DMSO/Saline as the vehicle within four hours. All animals which survived 7 days were sacrificed and the stroke volume calculated. The results are tabulated hereinbelow:
The protocol described hereinabove was repeated with CP-2 used in lieu of CP-1, at doses of 10, 50, 250 and 500 μM.

Compound | Cathepsin B k′2app (Cathepsin B) | Cathepsin L k′2app (Cathepsin L) | Calpain k′2app (Calpain) | also measured
CC(C)C[C@H](NC(=O)OCc1ccccc1)C(=O)N[C@@H](CC(C)C)C(=O)N[C@@H](Cc1ccc(O)cc1)C(=O)C=[N+]=[N-] [CBZ-Leu-Leu-Tyr-CHN2, benzyloxycarbonyl -Leu-Leu-Tyr-CHN2] (Cbz-Leu-Leu-Tyr-CHN2) | 1,300 M^−1S^−1 | 1,500,000 M^−1S^−1 | 230,000 M^−1S^−1 | 
CSCCC(NC(=O)C(CC(C)C)NC(=O)OCc1ccccc1)C(=O)C=[N+]=[N-] (stereo not drawn) [CBZ-Leu-Met-CHN2, benzyloxycarbonyl-Leu-Met-CHN2] (Cbz-Leu-Met-CHN2; configuration not given here) | 4,060 M^−1S^−1 | 212,000 M^−1S^−1 |  | 
CC(C)CC(NC(=O)OCc1ccccc1)C(=O)NC(Cc1c[nH]c2ccccc12)C(=O)C=[N+]=[N-] (stereo not drawn) [CBZ-Leu-Trp-CHN2, benzyloxycarbonyl-Leu-Trp-CHN2] | <50 M^−1S^−1 | 12,000 M^−1S^−1 |  | 
CC(C)CC(NC(=O)OCc1ccccc1)C(=O)NC(Cc1ccc(O)cc1)C(=O)C=[N+]=[N-] (stereo not drawn) [CBZ-Leu-Tyr-CHN2, benzyloxycarbonyl-Leu-Tyr-CHN2] (Cbz-Leu-Tyr-CHN2; configuration not given here) | <50 M^−1S^−1 | 1,500,000 M^−1S^−1 | 1,470 M^−1S^−1 | 
CC(NC(=O)C(Cc1ccc(I)cc1)NC(=O)OCc1ccccc1)C(=O)C=[N+]=[N-] (stereo not drawn) [CBZ-Phe(I)-Ala-CHN2, benzyloxycarbonyl-Phe (I) -Ala-CHN2] | 980 M^−1S^−1 | 130,000 M^−1S^−1 |  | 
[N-]=[N+]=CC(=O)C(CCCNC(N)=O)NC(=O)C(Cc1ccccc1)NC(=O)OCc1ccccc1 (stereo not drawn) [CBZ-Phe-Cit-CHN2, benzyloxycarbonyl-Phe-Cit-CHN2] (Cbz-Phe-[Cit]-CHN2; configuration not given here) | 6,700 M^−1S^−1 | 1,800,000 M^−1S^−1 |  | 
[N-]=[N+]=CC(=O)C(CSCc1ccccc1)NC(=O)C(Cc1ccccc1)NC(=O)OCc1ccccc1 (stereo not drawn) [CBZ-Phe-Cys(SBnz1)-CHN2, benzyloxycarbonyl-Phe-Cys-(SBz)-CHN2] (Cbz-Phe-Cys(Bn)-CHN2; configuration not given here) | 30,000 M^−1S^−1 | 390,000 M^−1S^−1 |  | 
[N-]=[N+]=CC(=O)C(Cc1ccc([N+](=O)[O-])cc1)NC(=O)C(Cc1ccccc1)NC(=O)OCc1ccccc1 (stereo not drawn) [CBZ-Phe-Phe(pNO2)-CHN2, benzyloxycarbonyl-Phe-Phe (p-N02) -CHN2] (Cbz-Phe-[Phe(4-NO2)]-CHN2; configuration not given here) | 50 M^−1S^−1 | 190,000 M^−1S^−1 |  | 
[N-]=[N+]=CC(=O)[C@H](Cc1ccccc1)NC(=O)[C@H](Cc1ccccc1)NC(=O)OCc1ccccc1 [CBZ-Phe-Phe-CHN2, benzyloxycarbonyl-Phe-Phe-CHN2] (Cbz-Phe-Phe-CHN2) | 350 M^−1S^−1 | 140,000 M^−1S^−1 |  | 
CC(OC(C)(C)C)C(NC(=O)C(Cc1ccccc1)NC(=O)OCc1ccccc1)C(=O)C=[N+]=[N-] (stereo not drawn) [CBZ-Phe-Thr(OtBu)-CHN2, benzyloxycarbonyl-Phe-Thr(O-t-Bu)-CHN2] | 160 M^−1S^−1 | 60,000 M^−1S^−1 |  | 
CC(C)(C)Oc1ccc(CC(NC(=O)C(Cc2ccccc2)NC(=O)OCc2ccccc2)C(=O)C=[N+]=[N-])cc1 (stereo not drawn) [CP-2, benzyloxycarbonyl-Phe-Tyr(OtBu)-CHN2] (Cbz-Phe-Tyr(tBu)-CHN2; configuration not given here) | 10 M^−1S^−1 | 200,000 M^−1S^−1 | <10 M^−1S^−1 | % Hemisphere Infarct Volume (% ± SEM) ([1]; 10 μM i.v. 15 μl/min for 4 h after reperfusion): 28 ± 4.6, p > 0.05%; % Hemisphere Infarct Volume (% ± SEM) ([1]; 50 μM i.v. 15 μl/min for 4 h after reperfusion): 35 ± 4.8, p > 0.05%; % Hemisphere Infarct Volume (% ± SEM) ([1]; 250 μM i.v. 15 μl/min for 4 h after reperfusion): 21 ± 4.7, p = 0.01%; % Hemisphere Infarct Volume (% ± SEM) ([1]; 500 μM i.v. 15 μl/min for 4 h after reperfusion): 22 ± 3.5, p = 0.004%; effectiveness in reducing stroke damage ([1]; doses 10, 50, 250 and 500 μM): High doses of CP-2 were effective, but not the lower doses
benzyloxycarbonyl-Phe-Ala-CHN2 [CBZ-Phe-Ala-CHN2] | 1,200 M^−1S^−1 | 160,000 M^−1S^−1 | <5 M^−1S^−1 | 
